# Measured values as given in US9249180B2, “C-3 alkyl and alkenyl modified betulinic acid derivatives” (priority 2013, dated 2016).
# Test system: recombinant NL4-3 virus (Renilla luciferase in nef, Gag P373S; NLRluc) in MT-2 cells
# Assay: HIV Cell Culture Assay (luciferase reporter, antiviral activity)
# Assay type: cell-based
# Conditions: Renilla, NL43, MT-2 cells infected for 4-5 days with NLRluc recombinants, serial dilutions of the inhibitor
# Protocol: HIV Cell Culture Assay—MT-2 cells and 293T cells were obtained from the NIH AIDS Research and Reference Reagent Program. MT-2 cells were propagated in RPMI 1640 media supplemented with 10% heat inactivated fetal bovine serum, […]. The 293T cells were propagated in DMEM media supplemented with 10% heat inactivated fetal bovine serum (FBS), 100 units/ml penicillin G and 100 μg/ml streptomycin. The proviral DNA clone of NL4-3 was obtained from the NIH AIDS Research and Reference Reagent Program. A recombinant NL4-3 virus, in which a section of the nef gene from NL4-3 was replaced with the Renilla luciferase gene, was used as a reference virus. In addition, residue Gag P373 was converted to P373S. Briefly, the recombinant virus was prepared by transfection of the altered proviral clone of NL4-3. Transfections were performed in 293T cells using LipofectAMINE PLUS from Invitrogen (Carlsbad, Calif.), according to manufacturer's instruction. The virus was titered in MT-2 cells using luciferase enzyme activity as a marker. Luciferase was quantitated using the Dual Luciferase kit from Promega (Madison, Wis.), with modifications to the manufacturer's protocol. The diluted Passive Lysis solution was pre-mixed with the re-suspended Luciferase Assay Reagent and the re-suspended Stop & Glo Substrate (2:1:1 ratio). Fifty (50) μL of the mixture was added to each aspirated well on assay plates and luciferase activity was measured immediately on a Wallac TriLux (Perkin-Elmer). Antiviral activities of inhibitors toward the recombinant virus were quantified by measuring luciferase activity in cells infected for 4-5 days with NLRluc recombinants in the presence serial dilutions of the inhibitor.
row,SMILES,EC50 [nM]
1,"C=C(C)[C@@H]1CC[C@]2(NCCN3CCS(=O)(=O)CC3)CC[C@]3(C)[C@H](CC[C@@H]4[C@@]5(C)CC=C(CC6CCC(OCC)(C(=O)O)CC6)C(C)(C)[C@@H]5CC[C@]43C)[C@@H]12 (stereo partly drawn) [Example 8, 4-(((1R,3aS,5aR,5bR,7aR,11aS,11bR,13aR,13bR)-3a-((2-(1,1-dioxidothiomorpholino)ethyl)amino)-5a,5b,8,8,11a-pentamethyl-1-(prop-1-en-2-yl)-2,3,3a,4,5,5a,5b,6,7,7a,8,11,11a,11b,12,13,13a,13b-octadecahydro-1H-cyclopenta[a]chrysen-9-yl)methyl)-1-ethoxycyclohexanecarboxylic acid]",4.2
2,"C=C(C)[C@@H]1CC[C@]2(NCCN3CCS(=O)(=O)CC3)CC[C@]3(C)[C@H](CC[C@@H]4[C@@]5(C)CC=C(CCC(C)(C)CC(=O)NS(C)(=O)=O)C(C)(C)[C@@H]5CC[C@]43C)[C@@H]12 [Example 15, 5-((1R,3aS,5aR,5bR,7aR,11aS,11bR,13aR,13bR)-3a-((2-(1,1-dioxidothiomorpholino)ethyl)amino)-5a,5b,8,8,11a-pentamethyl-1-(prop-1-en-2-yl)-2,3,3a,4,5,5a,5b,6,7,7a,8,11,11a,11b,12,13,13a,13b-octadecahydro-1H-cyclopenta[a]chrysen-9-yl)-3,3-dimethyl-N-(methylsulfonyl)pentanamide]",1.6
3,"C=C(C)[C@@H]1CC[C@]2(NCCN3CCS(=O)(=O)CC3)CC[C@]3(C)[C@H](CC[C@@H]4[C@@]5(C)CC=C(CCC(C)(C)CC(=O)NO)C(C)(C)[C@@H]5CC[C@]43C)[C@@H]12 [Example 12, 5-((1R,3aS,5aR,5bR,7aR,11aS,11bR,13aR,13bR)-3a-((2-(1,1-dioxidothiomorpholino)ethyl)amino)-5a,5b,8,8,11a-pentamethyl-1-(prop-1-en-2-yl)-2,3,3a,4,5,5a,5b,6,7,7a,8,11,11a,11b,12,13,13a,13b-octadecahydro-1H-cyclopenta[a]chrysen-9-yl)-N-hydroxy-3,3-dimethylpentanamide]",2
4,"C=C(C)[C@@H]1CC[C@]2(C(=O)O)CC[C@]3(C)[C@H](CC[C@@H]4[C@@]5(C)CC=C(CCC(=O)O)C(C)(C)[C@@H]5CC[C@]43C)[C@@H]12 [Example 19, (1R,3aS,5aR,5bR,7aR,11aS,13aR,13bR)-9-(2-carboxyethyl)-5a,5b,8,8,11a-pentamethyl-1-(prop-1-en-2-yl)-2,3,3a,4,5,5a,5b,6,7,7a,8,11,11a,11b,12,13,13a,13b-octadecahydro-1H-cyclopenta[a]chrysene-3a-carboxylic acid]",470
5,"C=C(C)[C@@H]1CC[C@]2(NCCN3CCS(=O)(=O)CC3)CC[C@]3(C)[C@H](CC[C@@H]4[C@@]5(C)CC=C(CCC(C)(C)CC(=O)NOC)C(C)(C)[C@@H]5CC[C@]43C)[C@@H]12 [Example 13, 5-((1R,3aS,5aR,5bR,7aR,11aS,11bR,13aR,13bR)-3a-((2-(1,1-dioxidothiomorpholino)ethyl)amino)-5a,5b,8,8,11a-pentamethyl-1-(prop-1-en-2-yl)-2,3,3a,4,5,5a,5b,6,7,7a,8,11,11a,11b,12,13,13a,13b-octadecahydro-1H-cyclopenta[a]chrysen-9-yl)-N-methoxy-3,3-dimethylpentanamide]",30
6,"C=C(C)[C@@H]1CC[C@]2(NCCN3CCS(=O)(=O)CC3)CC[C@]3(C)[C@H](CC[C@@H]4[C@@]5(C)CC=C(CCC(C)(C)CC(=O)NC#N)C(C)(C)[C@@H]5CC[C@]43C)[C@@H]12 [Example 14, N-cyano-5-((1R,3aS,5aR,5bR,7aR,11aS,11bR,13aR,13bR)-3a-((2-(1,1-dioxidothiomorpholino)ethyl)amino)-5a,5b,8,8,11a-pentamethyl-1-(prop-1-en-2-yl)-2,3,3a,4,5,5a,5b,6,7,7a,8,11,11a,11b,12,13,13a,13b-octadecahydro-1H-cyclopenta[a]chrysen-9-yl)-3,3-dimethylpentanamide]",4.7
7,"C=C(C)[C@@H]1CC[C@]2(NCCN3CCS(=O)(=O)CC3)CC[C@]3(C)[C@H](CC[C@@H]4[C@@]5(C)CC=C(CCCCCC(=O)O)C(C)(C)[C@@H]5CC[C@]43C)[C@@H]12 [Example 10, 6-((1R,3aS,5aR,5bR,7aR,11aS,11bR,13aR,13bR)-3a-((2-(1,1-dioxidothiomorpholino)ethyl)amino)-5a,5b,8,8,11a-pentamethyl-1-(prop-1-en-2-yl)-2,3,3a,4,5,5a,5b,6,7,7a,8,11,11a,11b,12,13,13a,13b-octadecahydro-1H-cyclopenta[a]chrysen-9-yl)hexanoic acid]",3.1
8,"CC(C)[C@@H]1CC[C@]2(NCCN3CCS(=O)(=O)CC3)CC[C@]3(C)[C@H](CC[C@@H]4[C@@]5(C)CCC(CCCCC(=O)O)C(C)(C)[C@@H]5CC[C@]43C)[C@@H]12 (stereo partly drawn) [Example 16, 5-((1S,3aS,5aR,5bR,7aS,11aS,11bR,13aR,13bR)-3a-((2-(1,1-dioxidothiomorpholino)ethyl)amino)-1-isopropyl-5a,5b,8,8,11a-pentamethylicosahydro-1H-cyclopenta[a]chrysen-9-yl)pentanoic acid]",1
9,"C=C(C)[C@@H]1CC[C@]2(NCCN3CCS(=O)(=O)CC3)CC[C@]3(C)[C@H](CC[C@@H]4[C@@]5(C)CC=C(/C=C/c6ccc(C(=O)O)cc6)C(C)(C)[C@@H]5CC[C@]43C)[C@@H]12 [Example B1, 4-((E)-2-((1R,3aS,5aR,5bR,7aR,11aS,11bR,13aR,13bR)-3a-((2-(1,1-dioxidothiomorpholino)ethyl)amino)-5a,5b,8,8,11a-pentamethyl-1-(prop-1-en-2-yl)-2,3,3a,4,5,5a,5b,6,7,7a,8,11,11a,11b,12,13,13a,13b-octadecahydro-1H-cyclopenta[a]chrysen-9-yl)vinyl)benzoic acid]",10
10,"C=C(C)[C@@H]1CC[C@]2(NCCN3CCS(=O)(=O)CC3)CC[C@]3(C)[C@H](CC[C@@H]4[C@@]5(C)CC=C(C=C6CCC(C(=O)O)CC6)C(C)(C)[C@@H]5CC[C@]43C)[C@@H]12 (stereo partly drawn) [Example A1, 4-(((1R,3aS,5aR,5bR,7aR,11aS,11bR,13aR,13bR)-3a-((2-(1,1-dioxidothiomorpholino)ethyl)amino)-5a,5b,8,8,11a-pentamethyl-1-(prop-1-en-2-yl)-2,3,3a,4,5,5a,5b,6,7,7a,8,11,11a,11b,12,13,13a,13b-octadecahydro-1H-cyclopenta[a]chrysen-9-yl)methylene)cyclohexanecarboxylic acid]",3.55
11,"C=C(C)[C@@H]1CC[C@]2(NCCN3CCS(=O)(=O)CC3)CC[C@]3(C)[C@H](CC[C@@H]4[C@@]5(C)CC=C(CC6CCC(OC)(C(=O)O)CC6)C(C)(C)[C@@H]5CC[C@]43C)[C@@H]12 (stereo partly drawn) [Example 9, 4-(((1R,3aS,5aR,5bR,7aR,11aS,11bR,13aR,13bR)-3a-((2-(1,1-dioxidothiomorpholino)ethyl)amino)-5a,5b,8,8,11a-pentamethyl-1-(prop-1-en-2-yl)-2,3,3a,4,5,5a,5b,6,7,7a,8,11,11a,11b,12,13,13a,13b-octadecahydro-1H-cyclopenta[a]chrysen-9-yl)methyl)-1-methoxycyclohexanecarboxylic acid]",3.7
12,"C=C(C)[C@@H]1CC[C@]2(NCCN3CCS(=O)(=O)CC3)CC[C@]3(C)[C@H](CC[C@@H]4[C@@]5(C)CC=C(CCCC(C)(C)C(=O)O)C(C)(C)[C@@H]5CC[C@]43C)[C@@H]12 [Example 7, 5-((1R,3aS,5aR,5bR,7aR,11aS,11bR,13aR,13bR)-3a-((2-(1,1-dioxidothiomorpholino)ethyl)amino)-5a,5b,8,8,11a-pentamethyl-1-(prop-1-en-2-yl)-2,3,3a,4,5,5a,5b,6,7,7a,8,11,11a,11b,12,13,13a,13b-octadecahydro-1H-cyclopenta[a]chrysen-9-yl)-2,2-dimethylpentanoic acid]",5.3
